Consider 21 compounds from patent publication US11814375B2, “Heterocyclic compounds” (Hoffmann-La Roche Inc., priority 2019, dated 2023).

Molecules are shown by their SMILES. pIC50: −log10 of the molar value.

This experiment has as its target T1, MAGL (Homo sapiens, UniProt Q99685).
T1 sequence (Q99685 1-303): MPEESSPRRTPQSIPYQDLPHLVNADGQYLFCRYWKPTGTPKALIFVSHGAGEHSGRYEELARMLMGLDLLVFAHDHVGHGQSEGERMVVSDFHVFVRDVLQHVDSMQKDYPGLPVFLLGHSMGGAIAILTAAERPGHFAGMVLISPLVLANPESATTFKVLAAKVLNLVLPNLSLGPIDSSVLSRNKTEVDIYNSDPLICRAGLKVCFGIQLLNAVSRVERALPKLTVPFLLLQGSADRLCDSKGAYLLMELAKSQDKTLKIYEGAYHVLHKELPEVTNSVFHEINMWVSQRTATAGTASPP
Put plainly: 2-AG assay: MAGL inhibitory activity by hydrolysis of 2-arachidonoylglycerol to arachidonic acid, followed by mass spectrometry. The class given is biochemical. The following applies: 8 μM 2-arachidonoylglycerol, 15 min preincubation and 30 min reaction at RT, arachidonic acid/d8-arachidonic acid ratio by MS. How it is done: Compounds of formula (I) were profiled for MAGL inhibitory activity by determining the enzymatic activity by following the hydrolysis of the natural substrate 2-arachidonoylglycerol (2-AG) resulting in arachidonic acid, which can be followed by mass spectrometry. This assay is hereinafter abbreviated “2-AG assay”.
The 2-AG assay was carried out in 384 well assay plates (PP, Greiner Cat #784201) in a total volume of 20 μL. Compound dilutions were made in 100% DMSO (VWR Chemicals 23500.297) in a polypropylene plate in 3-fold dilution steps to give a final concentration range in the assay from 12.5 μM to […]. 0.25 μL compound dilutions (100% DMSO) were added to 9 μL MAGL in assay buffer (50 mM TRIS (GIBCO, 15567-027), 1 mM EDTA (Fluka, 03690-100 mL), 0.01% (v/v) Tween. After shaking, the plate was incubated for 15 min at RT. To start the reaction, 10 μL 2-arachidonoylglycerol in assay buffer was added. The final concentrations in the assay was […] and 8 μM 2-arachidonoylglyerol. After shaking and 30 min incubation at RT, the reaction was quenched by the addition of 40 μL of ACN containing 4 μM of d8-arachidonic acid. The amount of arachidonic acid was traced by an online SPE system (Agilent Rapidfire) coupled to a triple quadrupole mass spectrometer (Agilent 6460). A C18 SPE cartridge (G9205A) was used in an ACN/water liquid setup. The mass spectrometer was operated in negative electrospray mode following the mass transitions 303.1→259.1 for arachidonic acid and 311.1→267.0 for d8-arachidonic acid. The activity of the compounds was calculated based on the ratio of intensities [arachidonic acid/d8-arachidonic acid].
By pIC50 is commonly meant −log10 of the IC50, conventionally taken in molar units. As to `O=C1CO[C@H]2CCN(C(=O)N3CC(c4ccc(Oc5ccccc5Cl)cc4)C3)C[C@H]2N1` [Example 2, (4aR,8aS)-6-[3-[4-(2-Chlorophenoxy)phenyl]azetidine-1-carbonyl]-4,4a,5,7,8,8a-hexahydropyrido[4,3-b][1,4]oxazin-3-one], the pIC50 is 10.70.

Take `Cn1cc(-c2ccc(C3CN(C(=O)N4CC[C@@H]5OCC(=O)N[C@@H]5C4)C3)cc2)cn1` [Example 45, (4aR,8aS)-6-[3-[4-(1-Methylpyrazol-4-yl)phenyl]azetidine-1-carbonyl]-4,4a,5,7,8,8a-hexahydropyrido[4,3-b][1,4]oxazin-3-one]: the pIC50 is 6.87.

For `O=C1CO[C@H]2CCN(C(=O)N3CC(c4ccc(Oc5nccc(C6CC6)n5)cc4)C3)C[C@H]2N1` [Example 25, (+)-(4aR,8aS)-6-[3-[4-(4-Cyclopropylpyrimidin-2-yl)oxyphenyl]azetidine-1-carbonyl]-4,4a,5,7,8,8a-hexahydropyrido[4,3-b][1,4]oxazin-3-one], the pIC50 is 8.38.

Turning to `O=C1CO[C@H]2CCN(C(=O)N3CC(c4ccc(Oc5ncccn5)cc4)C3)C[C@H]2N1` [Example 3, (4aR,8aS)-6-[3-(4-Pyrimidin-2-yloxyphenyl)azetidine-1-carbonyl]-4,4a,5,7,8,8a-hexahydropyrido[4,3-b][1,4]oxazin-3-one], the pIC50 is 7.12.

In the case of `O=C1CO[C@H]2CCN(C(=O)N3CC(c4ccc(Oc5cccc(F)c5)cc4)C3)C[C@H]2N1` [Example 15, (+)-(4aR,8aS)-6-[3-[4-(3-Fluorophenoxy)phenyl]azetidine-1-carbonyl]-4,4a,5,7,8,8a-hexahydropyrido[4,3-b][1,4]oxazin-3-one], the pIC50 is 9.96.

For `O=C1CO[C@H]2CCN(C(=O)N3CC(c4ccc(-c5ccn[nH]5)cc4)C3)C[C@H]2N1` [Example 31, (4aR,8aS)-6-[3-[4-(1H-Pyrazol-5-yl)phenyl]azetidine-1-carbonyl]-4,4a,5,7,8,8a-hexahydropyrido[4,3-b][1,4]oxazin-3-one], the pIC50 was 7.04.

On to `O=C1CO[C@H]2CCN(C(=O)N3CC(O)(c4ccc(Oc5ccccc5)cn4)C3)C[C@H]2N1` [Example 56, (4aR,8aS)-6-[3-Hydroxy-3-(5-phenoxy-2-pyridyl)azetidine-1-carbonyl]-4,4a,5,7,8,8a-hexahydropyrido[4,3-b][1,4]oxazin-3-one], for which the pIC50 is 7.81.

As to `O=C1CO[C@H]2CCN(C(=O)N3CC(c4ccc(Oc5ccc(F)cc5F)cc4)C3)C[C@H]2N1` [Example 17, (+)-(4aR,8aS)-6-[3-[4-(2,4-Difluorophenoxy)phenyl]azetidine-1-carbonyl]-4,4a,5,7,8,8a-hexahydropyrido[4,3-b][1,4]oxazin-3-one], the pIC50 is 10.00.

Turning to `O=C1CO[C@H]2CCN(C(=O)N3CC(c4ccc(Oc5ccnnc5Cl)cc4)C3)C[C@H]2N1` [Example 12, (+)-(4aR,8aS)-6-[3-[4-(3-Chloropyridazin-4-yl)oxyphenyl]azetidine-1-carbonyl]-4,4a,5,7,8,8a-hexahydropyrido[4,3-b][1,4]oxazin-3-one], the pIC50 is 7.63.

Regarding `N#Cc1ccccc1Oc1ccc(C2CN(C(=O)N3CC[C@@H]4OCC(=O)N[C@@H]4C3)C2)cc1` [Example 23, (+)-2-[4-[1-[(4aR,8aS)-3-Oxo-4,4a,5,7,8,8a-hexahydropyrido[4,3-b][1,4]oxazine-6-carbonyl]azetidin-3-yl]phenoxy]benzonitrile], the pIC50 is 9.70.

Consider `O=C1CO[C@H]2CCN(C(=O)N3CC(c4ccc(Oc5cccc(Cl)c5)cc4)C3)C[C@H]2N1` [Example 20, (+)-(4aR,8aS)-6-[3-[4-(3-Chlorophenoxy)phenyl]azetidine-1-carbonyl]-4,4a,5,7,8,8a-hexahydropyrido[4,3-b][1,4]oxazin-3-one], for which the pIC50 is 10.22.

With `O=C1CO[C@H]2CCN(C(=O)N3CCC(c4ccc(Oc5ccc(F)cc5)cc4)CC3)C[C@H]2N1` [Example 54, (4aR,8aS)-6-[4-[4-(4-Fluorophenoxy)phenyl]piperidine-1-carbonyl]-4,4a,5,7,8,8a-hexahydropyrido[4,3-b][1,4]oxazin-3-one], the pIC50 is 7.98.

For `Cc1ccccc1Oc1ccc(C2CN(C(=O)N3CC[C@@H]4OCC(=O)N[C@@H]4C3)C2)cc1` [Example 21, (+)-(4aR,8aS)-6-[3-[4-(2-Methylphenoxy)phenyl]azetidine-1-carbonyl]-4,4a,5,7,8,8a-hexahydropyrido[4,3-b][1,4]oxazin-3-one], the negative-log IC50 (pIC50) was 10.52.

For the compound `O=C1CO[C@H]2CCN(C(=O)N3CC(c4ccc(Oc5cccnn5)cc4)C3)C[C@H]2N1` [Example 6, (+)-(4aR,8aS)-6-[3-(4-Pyridazin-3-yloxyphenyl)azetidine-1-carbonyl]-4,4a,5,7,8,8a-hexahydropyrido[4,3-b][1,4]oxazin-3-one], the pIC50 was 6.88.

`CS(=O)(=O)c1nccc(Oc2ccc(C3CN(C(=O)N4CC[C@@H]5OCC(=O)N[C@@H]5C4)C3)cc2)n1` [Example 29, (+)-(4aR,8aS)-6-[3-[4-(2-Methylsulfonylpyrimidin-4-yl)oxyphenyl]azetidine-1-carbonyl]-4,4a,5,7,8,8a-hexahydropyrido[4,3-b][1,4]oxazin-3-one]: the negative-log IC50 (pIC50) is 7.04.

On to `O=C1CO[C@H]2CCN(C(=O)N3CC(c4ccc(Oc5ccc(Cl)cc5)nc4)C3)C[C@H]2N1` [Example 50, (4aR,8aS)-6-(3-(6-(4-Chlorophenoxy)pyridin-3-yl)azetidine-1-carbonyl)hexahydro-2H-pyrido[4,3-b][1,4]oxazin-3(4H)-one], for which the pIC50 was 8.37.

`O=C1CO[C@H]2CCN(C(=O)N3CC(c4ccc(Oc5ccc(F)cc5)cn4)C3)C[C@H]2N1` [Example 47, (4aR,8aS)-6-[3-[5-(4-Fluorophenoxy)-2-pyridyl]azetidine-1-carbonyl]-4,4a,5,7,8,8a-hexahydropyrido[4,3-b][1,4]oxazin-3-one]: the pIC50 was 8.85.

`O=C1CO[C@H]2CCN(C(=O)N3CC(c4ccc(-c5ncccc5Cl)cc4)C3)C[C@H]2N1` [Example 33, (4aR,8aS)-6-[3-[4-(3-Chloro-2-pyridyl)phenyl]azetidine-1-carbonyl]-4,4a,5,7,8,8a-hexahydropyrido[4,3-b][1,4]oxazin-3-one]: the pIC50 is 8.57.

As for `O=C1CO[C@H]2CCN(C(=O)N3CC(c4ccc(Oc5ccc(Cl)cc5)cc4)C3)C[C@H]2N1` [Example 19, (+)-(4aR,8aS)-6-[3-[4-(4-Chlorophenoxy)phenyl]azetidine-1-carbonyl]-4,4a,5,7,8,8a-hexahydropyrido[4,3-b][1,4]oxazin-3-one], the negative-log IC50 (pIC50) was 11.00.

With `O=C1CO[C@H]2CCN(C(=O)N3CC(c4ccc(Oc5cccc(Cl)c5)nc4)C3)C[C@H]2N1` [Example 53, (4aR,8aS)-6-(3-(6-(3-Chlorophenoxy)pyridin-3-yl)azetidine-1-carbonyl)hexahydro-2H-pyrido[4,3-b][1,4]oxazin-3(4H)-one], the pIC50 was 7.89.

`Cc1cc(Oc2ccc(C3CN(C(=O)N4CC[C@@H]5OCC(=O)N[C@@H]5C4)C3)cc2)c(C)nn1` [Example 51, (4aR,8aS)-6-[3-[4-(3,6-Dimethylpyridazin-4-yl)oxyphenyl]azetidine-1-carbonyl]-4,4a,5,7,8,8a-hexahydropyrido[4,3-b][1,4]oxazin-3-one]: the pIC50 is 6.91.
